Measurements published in patent publication US12522587B2, “Cancer treatments targeting cancer stem cells” (Remedy Plan, Inc., priority 2018, dated 2026).
Where a name gives a salt, the structure may show the parent alone.

What follows are compounds tested on RS4;11 cells (assay: Cell viability in RS4;11 cells (CellTiter Glo2, 4 days)). Settings: Homo sapiens, 96 h.
Type: cell-based
Description: Approximately 10,000 RS4;11 cells per well of a 96-well plate were treated with DMSO (no drug control) or each compound in Table 6 in an 8-point dose response for 4 days. Cell viability was measured using CellTiter Glo2. The IC50 of each compound was determined using CDD Vault.

IC50 [µM] | SMILES
> 30 | CCC(=O)N1CCc2cc(-c3ccc(C(=O)NCc4cccnc4)c(F)c3)ccc21 [Compound I-98, 2-fluoro-4-(1-propionylindolin-5-yl)-N-(pyridin-3-ylmethyl) benzamide]

Each compound was assayed on MV-4-11 cells (assay: Cell viability in MV-4-11 cells (CellTiter Glo2, 4 days)). Settings: Homo sapiens, MV4-11, 96 h.
Type: cell-based
Description: Approximately 10,000 MV-4-11 cells per well of a 96-well plate were treated with DMSO (no drug control) or each compound in Table 6 in an 8-point dose response for 4 days. Cell viability was measured using CellTiter Glo2. The IC50 of each compound was determined using CDD Vault.

IC50 [µM] | SMILES
0.845 | CCC(=O)N1CCc2cc(-c3ccc(C(=O)NCc4cccnc4)c(F)c3)ccc21 [Compound I-98, 2-fluoro-4-(1-propionylindolin-5-yl)-N-(pyridin-3-ylmethyl) benzamide]

These compounds were tested on AGS cells (assay: Cell viability in AGS cells (CellTiter Glo2, 8-point dose response, 4 days)). Settings: not given.
Type: cell-based, human
Description: AGS cells were treated with DMSO (no drug control) or each compound in Table 5 in an 8-point dose response for 4 days. Cell viability was measured using CellTiter Glo2. The IC50 of each compound was determined using CDD Vault.

IC50 [µM] | SMILES
2.59 | CCC(=O)N1CCc2cc(-c3ccc(C(=O)NCc4cccnc4)cc3C)ccc21 [Compound I-91, 3-methyl-4-(1-propionylindolin-5-yl)-N-(pyridin-3-ylmethyl)benzamide]
> 18.3 | CC(=O)N1CCCc2cc(-c3ccc(C(=O)NCc4cccnc4)cc3)ccc21 [Compound I-46, 4-(1-acetyl-1,2,3,4-tetrahydroquinolin-6-yl)-N-(pyridin-3-ylmethyl)benzamide]
> 8.01 | CCC(=O)N1CCc2cc(-c3ccc(C(=O)NCc4ccnnc4)cc3)ccc21 [Compound I-52, 4-(1-propionylindolin-5-yl)-N-(pyridazin-4-ylmethyl)benzamide]
21 | CCC(=O)N1CCc2cc(-c3ccc(C(=O)NCc4ccccn4)cc3)ccc21 [Compound I-185, 4-(1-propionylindolin-5-yl)-N-(pyridin-2-ylmethyl)benzamide]
15.1 | CCC(=O)N1CCc2cc(-c3nc(C(=O)NCc4cccnc4)c[nH]3)ccc21 [Compound I-208, 2-(1-propionylindolin-5-yl)-N-(pyridin-3-ylmethyl)-1H-imidazole-4-carboxamide]

Same assay, conditions: Homo sapiens, 96 h

SMILES | IC50 [µM]
CCC(=O)N1CCc2cc(-c3ccc(C(=O)N(C)Cc4cccnc4)cc3)ccc21 [Compound I-62, N-methyl-4-(1-propionylindolin-5-yl)-N-(pyridin-3-ylmethyl)benzamide] | 29.3
CCC(=O)N1CCc2cc(-c3ccc(C(=O)NCC4=CC[NH2+]CC4)cc3)ccc21 [Mono- formate of I-69, Monoformate 4-(1-propionylindolin-5-yl)-N-((1,2,3,6-tetrahydropyridin-4-yl)methyl)benzamide] | > 30

Same assay, conditions: Homo sapiens, AGS, 96 h

SMILES | IC50 [µM]
CCC(=O)N1CCc2cc(-c3ccc(C(=O)NCc4cnccc4C)cc3)ccc21 [Compound I-188, N-((4-methylpyridin-3-yl)methyl)-4-(1-propionylindolin-5-yl)benzamide] | > 30
CCC(=O)N(C)c1ccc(-c2ccc(C(=O)NCc3cccnc3)cn2)c(C)c1 [Compound I-246, 6-(2-methyl-4-(N-methylpropionamido)phenyl)-N-(pyridin-3-ylmethyl)nicotinamide] | 12.1
CCC(=O)N1CCc2cc(-c3ccc(C(=O)NCc4ccncc4)cc3)ccc21 [Compound I-49, 4-(1-propionylindolin-5-yl)-N-(pyridin-4-ylmethyl)benzamide] | > 30
CCC(=O)N(C)c1ccc(-c2ccc(C(=O)NCc3cscn3)cc2)cc1 [Compound I-236] | > 30
CC(C)(O)C(=O)N1CCc2cc(-c3ccc(C(=O)NCc4cccnc4)cc3)ccc21 [Compound I-68, 4-(1-(2-hydroxy-2-methylpropanoyl)indolin-5-yl)-N-(pyridin-3-ylmethyl)benzamide] | 29.7
CN1CCc2cc(-c3ccc(C(=O)NCc4cccnc4)cc3)ccc21 [Compound I-75, 4-(1-methylindolin-5-yl)-N-(pyridin-3-ylmethyl)benzamide] | > 20.6
CN(C(=O)CC#N)c1ccc(-c2ccc(C(=O)NCc3cccnc3)cc2)cc1 [Compound I-249] | > 18.4
CCC(=O)N1CCc2cc(-c3ccc(C(=O)NC(C)(C)c4cccnc4)cc3)ccc21 [Compound I-58, 4-(1-propionylindolin-5-yl)-N-(2-(pyridin-3-yl)propan-2-yl)benzamide] | > 30
CCC(=O)N1CCc2cc(-c3ccc(C(=O)NCc4cccc(OC)c4)cc3)ccc21 [Compound I-171] | > 30
CC(=O)N1CCCc2cc(-c3ccc(C(=O)NCc4cccnc4)cc3)ccc21 [Compound I-46, 4-(1-acetyl-1,2,3,4-tetrahydroquinolin-6-yl)-N-(pyridin-3-ylmethyl)benzamide] | > 17.5
CCC(=O)N1CCc2cc(-c3ccc(C(=O)NCc4ccnnc4)cc3)ccc21 [Compound I-52, 4-(1-propionylindolin-5-yl)-N-(pyridazin-4-ylmethyl)benzamide] | > 10
CCC(=O)N1CCc2cc(-c3ccc(C(=O)NCc4cn[nH]c4)cc3)ccc21 [Compound I-72, N-((1H-pyrazol-4-yl)methyl)-4-(1-propionylindolin-5-yl)benzamide] | > 30
CCC(=O)N1CCc2cc(-c3ccc(C(=O)NCC4CNC4)cc3)ccc21 [Compound I-200, N-(azetidin-3-ylmethyl)-4-(1-propionylindolin-5-yl)benzamide] | > 30
CCC(=O)N1CCc2cc(-c3ccc(C(=O)NCc4ccccn4)cc3)ccc21 [Compound I-185, 4-(1-propionylindolin-5-yl)-N-(pyridin-2-ylmethyl)benzamide] | 15.5
CCC(=O)N1CCc2cc(-c3ccc(C(=O)NCc4cnco4)cc3)ccc21 [Compound I-73, N-(oxazol-5-ylmethyl)-4-(1-propionylindolin-5-yl)benzamide] | > 30
CCC(=O)N1CCc2cc(-c3ccc(C(=O)NCc4ccc(C)cc4)cc3)ccc21 [Compound I-157] | > 30
CCC(=O)N1CCc2cc(-c3ccc(C(=O)NCc4ccncn4)cc3)ccc21 [Compound I-204, 4-(1-propionylindolin-5-yl)-N-(pyrimidin-4-ylmethyl)benzamide] | > 30
CCC(=O)N1CCc2cc(-c3nc(C(=O)NCc4cccnc4)c[nH]3)ccc21 [Compound I-208, 2-(1-propionylindolin-5-yl)-N-(pyridin-3-ylmethyl)-1H-imidazole-4-carboxamide] | > 30
CCC(=O)N1CCc2cc(-c3ccc(C(=O)NCC4CN(C(=O)OC(C)(C)C)C4)cc3)ccc21 [Compound I-196] | > 30
CCC(=O)N1CCc2cc(-c3ccc(C(=O)NCc4ccc(Cl)cc4)cc3)ccc21 [Compound I-176] | 25.8
CCC(=O)N1CCc2cc(-c3cccc(C(=O)NCc4cccnc4)c3)ccc21 [Compound I-50, 3-(1-propionylindolin-5-yl)-N-(pyridin-3-ylmethyl)benzamide] | > 30
CCC(=O)N1CCc2cc(-c3ccc(C(=O)NC(C)c4cccnc4)cc3)ccc21 (centres unmarked) [Compound I-57, 4-(1-propionylindolin-5-yl)-N-(1-(pyridin-3-yl)ethyl)benzamide] | > 28.2
CCC(=O)N(C)c1ccc(-c2ccc(S(=O)(=O)NCc3cccnc3)cc2)cc1 [Compound I-226] | 9.76
CCC(=O)N1CCc2cc(-c3ccc(C(=O)NCc4cccc(Cl)c4)cc3)ccc21 [Compound I-168] | > 30
CCC(=O)N1CCc2cc(-c3ccc(C(=O)NCc4cccnc4)c(OC)c3)ccc21 [Compound I-96, 2-methoxy-4-(1-propionylindolin-5-yl)-N-(pyridin-3-ylmethyl)benzamide] | > 30
CCC(=O)N1CCc2cc(-c3ccc(NC(=O)Cc4cccnc4)cc3)ccc21 [Compound I-95] | > 30
CCC(=O)N1CCc2cc(-c3ccc(C(=O)NCC4CCNCC4)cc3)ccc21 [Compound I-70, N-(piperidin-4-ylmethyl)-4-(1-propionylindolin-5-yl)benzamide] | > 30
CCC(=O)N1CCc2cc(-c3ccc(C(=O)NCc4cncnc4)cc3)ccc21 [Compound I-51, 4-(1-propionylindolin-5-yl)-N-(pyrimidin-5-ylmethyl)benzamide] | > 30

Second part, the compound after the results:

IC50 [µM] | SMILES
9.45 | CCC(=O)N1CCc2cc(-c3ccc(S(=O)(=O)NCc4cccnc4)cc3)ccc21 [Compound I-48, 4-(1-propionylindolin-5-yl)-N-(pyridin-3-ylmethyl)benzenesulfonamide]
7.27 | CCC(=O)N1CCc2cc(-c3cnc(C(=O)NCc4cccnc4)nc3)ccc21 [Compound I-65, 5-(1-propionylindolin-5-yl)-N-(pyridin-3-ylmethyl) pyrimidine-2-carboxamide]
5.22 | CCC(=O)N(C)c1ccc(-c2ccc(C(=O)NCc3cccnc3)nc2)cc1C [Compound I-227, 5-(3-methyl-4-(N-methylpropionamido)phenyl)-N-(pyridin-3-ylmethyl)picolinamide]
5.16 | CN(C(=O)c1cocn1)c1ccc(-c2ccc(C(=O)NCc3cccnc3)cc2)cc1 [Compound I-245]
5.11 | CN(C(=O)c1ccccc1)c1ccc(-c2ccc(C(=O)NCc3cccnc3)cc2)cc1 [Compound I-240]
4.54 | CCC(=O)N1CCc2cc(N3CCN(C(=O)NCc4cccnc4)CC3)ccc21 [Compound I-223]
4.35 | CCC(=O)N1CCc2nc(-c3ccc(C(=O)NCc4cccnc4)cc3)ccc21 [Compound I-71, 4-(1-propionyl-2,3-dihydro-1H-pyrrolo[3,2-b]pyridin-5-yl)-N-(pyridin-3-ylmethyl)benzamide]
3.52 | COCCN1CCc2cc(-c3ccc(C(=O)NCc4cccnc4)cc3)ccc21 [Compound I-53, 4-(1-(2-methoxyethyl)indolin-5-yl)-N-(pyridin-3-ylmethyl)benzamide]
3.22 | O=C(NCc1cccnc1)c1ccc(-c2ccc3c(c2)CCN3C(=O)CO)cc1 [Compound I-47, 4-(1-(2-hydroxyacetyl)indolin-5-yl)-N-(pyridin-3-ylmethyl)benzamide]
2.94 | O=C(NCc1cccnc1)c1ccc(-c2ccc3c(c2)CCN3C(=O)C2CC2)cc1 [Compound I-220]
2.03 | CCC(=O)N1CCc2cc(-c3ccc(C(=O)NCc4cccnc4)cc3C)ccc21 [Compound I-91, 3-methyl-4-(1-propionylindolin-5-yl)-N-(pyridin-3-ylmethyl)benzamide]
1.85 | CCC(=O)N(C)c1ccc(-c2ccc(C(=O)NCc3cccnc3)cc2)c(C)c1 [Compound I-217]
1.65 | CCN(C)C(=O)c1ccc(-c2ccc(C(=O)NCc3cccnc3)cc2)cc1 [Compound I-251]
1.54 | CCC(=O)N1CCc2cc(-c3ccc(C(=O)NCc4cccnc4)cc3)c(C)cc21 (single isomer, unassigned) [Compound I-203, 4-(6-methyl-1-propionylindolin-5-yl)-N-(pyridin-3-ylmethyl)benzamide]
1.06 | CCC(=O)N1CCc2cc(-c3ccc(C(=O)NCc4cncc(C)c4)cc3)ccc21 [Compound I-198, N-((5-methylpyridin-3-yl)methyl)-4-(1-propionylindolin-5-yl)benzamide]
0.96 | CCC(=O)N1CCc2c1ccc(-c1ccc(C(=O)NCc3cccnc3)cc1)c2Cl [Compound I-214]
